Assay results published in paper PMC8610083 (Clinical cancer research : an official journal of the …, 2021).

Assays:
γ-secretase [1] = target: T1, γ-secretase (Homo sapiens, UniProt P49768); assay: In vitro γ-secretase activity assay; type: biochemical
γ-secretase [2] = target: T1, γ-secretase; assay: Membrane-based radioligand binding assay with [^131I]-PN67; conditions: for Blocking of PN67 binding to γ-secretase: Hela cell membrane, [^131I]-PN67 radioligand
[3] = Ex vivo biodistribution in 4T1-Luc allograft mouse model
γ-secretase [4] = target: γ-secretase (Mus musculus, UniProt P49769); assay: PET imaging of 4T1-Luc tumors in BALB/c mice, baseline and blocking; type: in vivo; conditions: co-injection 0.2 mg/kg to 30 mg/kg, 2h post injection
[5] = biodistribution, post injection

SMILES	IC50 (γ-secretase [1])	Ki (γ-secretase [2])	Blocking of PN67 binding to γ-secretase (γ-secretase [2])	further results
CC(C)[C@H](O)C(=O)N[C@@H](C)C(=O)N[C@@H]1C(=O)N(C)CCc2ccccc21 [compound 1, Semagacestat]	16.2 nM	13.6 nM	–	Blocking of 4T1 tumor uptake of [^124I]-PN67 (biodistribution) ([3]; co-administered 30mg/kg with the tracer, 2h time point): significant reduction of tracer uptake; Blocking of [^124I]-PN67 PET signal in 4T1-Luc tumor (γ-secretase [4]): blocked in a dose-dependent manner
CC(C)(C(=O)NCC(F)(F)C(F)(F)F)C(=O)N[C@@H]1C(=O)Nc2ccccc2-c2ccccc21 [RO-4929097]	–	–	effectively block PN67 binding to γ-secretase	–
CC(C)[C@H](O)C(=O)N[C@@H](C)C(=O)N[C@@H]1C(=O)N(C)CCc2ccc(I)cc21 [compound 2, (S)-2-hydroxy-N-((S)-1-(((S)-8-iodo-3-methyl-2-oxo-2,3,4,5-tetrahydro-1H-benzo[d]azepin-1-yl)amino)-1-oxopropan-2-yl)-3-methylbutanamide]	3.5 nM	4.3 nM	–	Half-life in mouse models ([3]; based on ex vivo biodistribution and PET imaging): about 2 hours; Time of maximal radioactivity in large intestine [3, 5]: 2 h; Time of maximal radioactivity in liver [3, 5]: 0.5 h; Time of maximal radioactivity in small intestine [3, 5]: 1 h
CCC[C@H](N[C@H]1CCc2cc(F)cc(F)c2C1)C(=O)Nc1cn(C(C)(C)CNCC(C)(C)C)cn1 [PF-03084014]	–	–	effectively block PN67 binding to γ-secretase	–
O=C(O)CC[C@H]1CC[C@@](c2cc(F)ccc2F)(S(=O)(=O)c2ccc(Cl)cc2)CC1 [MK-0752]	–	–	effectively block PN67 binding to γ-secretase	–
